Patent publication US10407422B2, “Triazolopyridine inhibitors of myeloperoxidase” (priority 2015, dated 2019)
pIC50: −log10 of the molar value.

How the values were obtained:
[1] = biological target: T1, myeloperoxidase (MPO) (Homo sapiens (Human), UniProt P05164); experiment: MPO peroxidation assay (Amplex Red assay); format: biochemical; details: potency range class
Procedure: MPO Peroxidation Assay (Amplex Red Assay) MPO peroxidation activity was measured in 100 mM KPi (pH 7.4) by utilizing the non-fluorescent reagent Amplex Red (Invitrogen Cat. #A12222) which can be oxidized to the highly fluorescent resorufin. Amplex Red is oxidized by the peroxidase action of MPO to resorufin. Reactions were carried out in 50 μL total volume by adding a 25 μL mixture of 200 pM myeloperoxidase and 40 nM H2O2(Sigma #349887) to 100 nL inhibitor in 100% DMSO in a 384 well Perkin Elmer Optiplate. Enzyme and compound were preincubated for ten minutes at room temperature. After the ten minute preincubation, 25 μL of an Amplex Red mixture containing 200 μM Amplex Red and 10 mM H2O2 was added to the plate. Kinetic determinations were carried out immediately on a Perkin Elmer Envision (15 minute kinetic read, Ex: 535 nm, Em: 590 nm). IC50 values were calculated by determining the slope of the linear portion of the kinetic trace (180-540 secs), and using that calculated slope to determine % inhibition occurring at each concentration of inhibitor using the following equation: [formula] where A=minimal Y value (activity level of inhibited sample), B=maximal Y value (activity level of uninhibited sample), C=Log IC50, D=Hill Slope, x=concentration of inhibitor. MPO Chlorination Assay (APF Assay)

[2] = biological target: T1, myeloperoxidase (MPO); experiment: MPO chlorination assay (APF assay); format: biochemical; details: potency range class
Procedure: [formula] where A=minimal Y value (activity level of inhibited sample), B=maximal Y value (activity level of uninhibited sample), C=Log IC50, D=Hill Slope, x=concentration of inhibitor. MPO Chlorination Assay (APF Assay) MPO chlorination activity was measured in 100 mM KPi (pH 7.4) by utilizing the non-fluorescent reagent Aminophenyl fluorescein (APF, Invitrogen Cat. #A36003). APF is cleaved by (—OCl) to yield the fluorescent compound fluorescein. Reactions were carried out in 50 μL total volume by adding a 25 μL mixture of 200 pM myeloperoxidase and 120 mM NaCl to 100 nL inhibitor in 100% DMSO in a 384 well, non-binding surface clear bottom plate (Corning #3655). Enzyme, inhibitor, and chloride were preincubated for ten minutes at room temperature. After the ten minute preincubation, 25 μL of an APF mixture containing […], 120 mM NaCl and 10 μM H2O2 was added to the plate using the internal dispensing system of a Hammatsu FDSS 6000. Kinetic determinations were carried out immediately on the FDSS 6000 (3 minute kinetic read, 1 read every second, ex: 485 nm, em: 535 nm). IC50 values for inhibitors were calculated by taking the slope of the linear portion of the kinetic measurement (20 seconds to ˜80-120 secs). IC50 values were calculated by determining the slope of the linear portion of the kinetic trace […], and using that calculated slope to determine % inhibition occurring at each concentration of inhibitor using the following equation: [formula] where A=minimal Y value (activity level of inhibited sample), B=maximal Y value (activity level of uninhibited sample), C=Log IC50, D=Hill Slope, x=concentration of inhibitor. EPX Bromination Assay

T1 sequence (P05164 49-745): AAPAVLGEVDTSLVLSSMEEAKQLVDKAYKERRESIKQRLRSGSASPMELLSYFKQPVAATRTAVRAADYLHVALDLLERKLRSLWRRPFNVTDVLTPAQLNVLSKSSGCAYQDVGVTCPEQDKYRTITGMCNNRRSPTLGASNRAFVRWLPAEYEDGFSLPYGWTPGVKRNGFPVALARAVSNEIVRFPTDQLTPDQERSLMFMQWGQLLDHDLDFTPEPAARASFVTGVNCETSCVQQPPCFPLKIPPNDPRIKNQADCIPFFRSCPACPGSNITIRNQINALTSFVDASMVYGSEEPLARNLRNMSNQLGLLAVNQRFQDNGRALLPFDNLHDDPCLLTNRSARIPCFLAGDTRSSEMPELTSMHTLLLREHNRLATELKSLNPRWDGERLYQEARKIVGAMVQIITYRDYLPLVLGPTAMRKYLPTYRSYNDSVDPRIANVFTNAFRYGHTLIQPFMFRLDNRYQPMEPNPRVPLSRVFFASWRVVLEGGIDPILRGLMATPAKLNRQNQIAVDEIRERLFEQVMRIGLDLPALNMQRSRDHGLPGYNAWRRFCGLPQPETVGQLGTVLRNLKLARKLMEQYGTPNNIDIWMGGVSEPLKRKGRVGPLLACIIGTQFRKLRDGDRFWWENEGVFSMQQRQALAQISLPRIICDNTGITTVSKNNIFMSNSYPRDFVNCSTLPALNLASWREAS

SMILES | pIC50 [1] | pIC50 [2]
CC(CO)NC(=O)c1ccc(Cn2cc(Cc3cc(N)nc4[nH]nnc34)cn2)cc1 (stereo not drawn) [Example 87, 4-{[4-({5-Amino-3H-[1,2,3]triazolo[4,5-b]pyridin-7-yl}methyl)-1H-pyrazol-1-yl]methyl}-N-(1-hydroxypropan-2-yl)benzamide] | 7.00 to 9.00 | 6.00 to 7.00
NCCN1Cc2ccc(Cn3cc(Cc4cc(N)nc5[nH]nnc45)cn3)cc2C1=O [Example 258, 6-{[4-({5-Amino-3H-[1,2,3]triazolo[4,5-b]pyridin-7-yl}methyl)-1H-pyrazol-1-yl]methyl}-2-(2-aminoethyl)-2,3-dihydro-1H-isoindol-1-one] | 6.00 to 7.00 | 6.00 to 7.00
Nc1cc(Cc2cnn(Cc3cc(F)cc([C@@H]4CCNC4)c3)c2)c2nn[nH]c2n1 [Example 195, 7-{[1-({3-Fluoro-5-[(3S)-pyrrolidin-3-yl]phenyl}methyl)-1H-pyrazol-4-yl]methyl}-3H-[1,2,3]triazolo[4,5-b]pyridin-5-amine] | 7.00 to 9.00 | 7.00 to 9.00
Nc1cc(Cc2cnn(Cc3cccc(Oc4cccc5c4CNCC5)c3)c2)c2nn[nH]c2n1 [Example 237, 7-[(1-{[3-(1,2,3,4-Tetrahydroisoquinolin-8-yloxy)phenyl]methyl}-1H-pyrazol-4-yl)methyl]-3H-[1,2,3]triazolo[4,5-b]pyridin-5-amine] | 7.00 to 9.00 | 7.00 to 9.00
Nc1cc(Cc2cnn(-c3ccccn3)c2)c2nn[nH]c2n1 [Example 31, 7-((1-(Pyridin-2-yl)-1H-pyrazol-4-yl)methyl)-3H-[1,2,3]triazolo[4,5-b]pyridin-5-amine] | 7.00 to 9.00 | 7.00 to 9.00
Nc1cc(Cc2cnn(Cc3cccc(OC4CC4)c3)c2)c2nn[nH]c2n1 [Example 98, 7-((1-(3-Cyclopropoxybenzyl)-1H-pyrazol-4-yl)methyl)-3H-[1,2,3]triazolo[4,5-b]pyridin-5-amine] | 7.00 to 9.00 | 7.00 to 9.00
Nc1cc(Cc2cnn(Cc3cn(Cc4ccccc4)nn3)c2)c2nn[nH]c2n1 [Example 107, 7-((1-((1-Benzyl-1H-1,2,3-triazol-4-yl)methyl)-1H-pyrazol-4-yl)methyl)-3H-[1,2,3]triazolo[4,5-b]pyridin-5-amine] | 7.00 to 9.00 | 6.00 to 7.00
Nc1cc(Cc2cnn(Cc3ccc4[nH]c(=O)ccc4c3)c2)c2nn[nH]c2n1 [Example 132, 6-((4-((5-Amino-3H-[1,2,3]triazolo[4,5-b]pyridin-7-yl)methyl)-1H-pyrazol-1-yl)methyl)quinolin-2(1H)-one] | 7.00 to 9.00 | 7.00 to 9.00
Nc1cc(Cc2cnn(Cc3cccc(-c4ccccc4)c3)c2)c2nn[nH]c2n1 [Example 44, 7-((1-([1,1′-Biphenyl]-3-ylmethyl)-1H-pyrazol-4-yl)methyl)-3H-[1,2,3]triazolo[4,5-b]pyridin-5-amine] | 7.00 to 9.00 | 7.00 to 9.00
Nc1cc(Cc2cnn(Cc3ccc(C(=O)NCCO)cc3)c2)c2nn[nH]c2n1 [Example 76, 4-{[4-({5-Amino-3H-[1,2,3]triazolo[4,5-b]pyridin-7-yl}methyl)-1H-pyrazol-1-yl]methyl}-N-(2-hydroxyethyl)benzamide] | 7.00 to 9.00 | 6.00 to 7.00
Cc1cc(Cc2cc(N)nc3[nH]nnc23)no1 [Example 71, 7-[(5-Methyl-1,2-oxazol-3-yl)methyl]-3H-[1,2,3]triazolo[4,5-b]pyridin-5-amine] | 6.00 to 7.00 | 6.00 to 7.00
Nc1cc(Cc2cnn(Cc3ccc(C(=O)N4CCC(O)C4)cc3)c2)c2nn[nH]c2n1 (stereo not drawn) [Example 84, 1-(4-{[4-({5-Amino-3H-[1,2,3]triazolo[4,5-b]pyridin-7-yl}methyl)-1H-pyrazol-1-yl]methyl}benzoyl)pyrrolidin-3-ol] | 6.00 to 7.00 | 6.00 to 7.00
Nc1cc(Cc2cnn(Cc3ccccc3Cl)c2)c2nn[nH]c2n1 [Example 57, 7-((1-(2-Chlorobenzyl)-1H-pyrazol-4-yl)methyl)-3H-[1,2,3]triazolo[4,5-b]pyridin-5-amine] | 7.00 to 9.00 | 7.00 to 9.00
Nc1cc(Cc2cnn(Cc3ccc4ncccc4c3)c2)c2nn[nH]c2n1 [Example 128, 7-((1-(Quinolin-6-ylmethyl)-1H-pyrazol-4-yl)methyl)-3H-[1,2,3]triazolo[4,5-b]pyridin-5-amine] | 7.00 to 9.00 | 6.00 to 7.00
Cc1ccccc1-n1cc(Cc2cc(N)nc3[nH]nnc23)cn1 [Example 24, 7-((1-(2-Methylphenyl)-1H-pyrazol-4-yl)methyl)-3H-[1,2,3]triazolo[4,5-b]pyridin-5-amine] | 6.00 to 7.00 | 7.00 to 9.00
CNc1nc2ccc(Cn3cc(Cc4cc(N)nc5[nH]nnc45)cn3)cc2s1 [Example 186, 6-{[4-({5-Amino-3H-[1,2,3]triazolo[4,5-b]pyridin-7-yl}methyl)-1H-pyrazol-1-yl]methyl}-N-methyl-1,3-benzothiazol-2-amine] | 7.00 to 9.00 | 6.00 to 7.00
Nc1cc(Cn2nnc3cc(Cc4ccccc4)ccc32)c2nn[nH]c2n1 [Example 171, 7-[(5-Benzyl-1H-1,2,3-benzotriazol-1-yl)methyl]-3H-[1,2,3]triazolo[4,5-b]pyridin-5-amine] | 6.00 to 7.00 | 6.00 to 7.00
Nc1cc(Cc2cnn(Cc3ccc4ccccc4c3)c2)c2nn[nH]c2n1 [Example 42, 7-((1-(Naphthalen-2-ylmethyl)-1H-pyrazol-4-yl)methyl)-3H-[1,2,3]triazolo[4,5-b]pyridin-5-amine] | 7.00 to 9.00 | 7.00 to 9.00
Nc1cc(Cc2cnn(Cc3ccc(C(=O)NCCc4cnc[nH]4)cc3)c2)c2nn[nH]c2n1 [Example 83, 4-{[4-({5-Amino-3H-[1,2,3]triazolo[4,5-b]pyridin-7-yl}methyl)-1H-pyrazol-1-yl]methyl}-N-[2-(1H-imidazol-4-yl)ethyl]benzamide] | 7.00 to 9.00 | 6.00 to 7.00
COc1cccc(Cn2cc(Cc3cc(N)nc4[nH]nnc34)cn2)c1 [Example 97, 7-((1-(3-Methoxybenzyl)-1H-pyrazol-4-yl)methyl)-3H-[1,2,3]triazolo[4,5-b]pyridin-5-amine] | 7.00 to 9.00 | 7.00 to 9.00
Nc1cc(Cc2cnn(Cc3cccc(C4CCNCC4)c3)c2)c2nn[nH]c2n1 [Example 206, 7-[(1-{[3-(Piperidin-4-yl)phenyl]methyl}-1H-pyrazol-4-yl)methyl]-3H-[1,2,3]triazolo[4,5-b]pyridin-5-amine] | 7.00 to 9.00 | 6.00 to 7.00
Nc1cc(Cc2cnn(CCC3CCNCC3)c2)c2nn[nH]c2n1 [Example 183, 7-({1-[2-(Piperidin-4-yl)ethyl]-1H-pyrazol-4-yl}methyl)-3H-[1,2,3]triazolo[4,5-b]pyridin-5-amine] | 7.00 to 9.00 | 6.00 to 7.00
Nc1cc(Cc2cnn(Cc3cccc4ccccc34)c2)c2nn[nH]c2n1 [Example 41, 7-((1-(Naphthalen-1-ylmethyl)-1H-pyrazol-4-yl)methyl)-3H-[1,2,3]triazolo[4,5-b]pyridin-5-amine] | 7.00 to 9.00 | 7.00 to 9.00
COc1nccc2ccc(Cn3cc(Cc4cc(N)nc5[nH]nnc45)cn3)cc12 [Example 174, 7-((1-((1-Methoxyisoquinolin-7-yl)methyl)-1H-pyrazol-4-yl)methyl)-3H-[1,2,3]triazolo[4,5-b]pyridin-5-amine] | 7.00 to 9.00 | 6.00 to 7.00
